Laboratory results published in patent US10688188B2, “Polytetrafluoroethylene co-polymer emulsions” (W. L. Gore & Associates, Inc., priority 2012, dated 2020).

Test: Solubility statements
Assay type: physicochemical

Row | solubility in acetone (DSP in acetone) | solubility in Fluorinert (Fluorinert FC77) | solubility in acetone (Solution V) (1.0 g in 100 g Solution V) | SMILES
1 | nonsolvent | nonsolvent | – | C[C@@H]1C[C@H]2[C@@H]3CCC4=CC(=O)C=C[C@]4(C)[C@@]3(F)[C@@H](O)C[C@]2(C)[C@@]1(O)C(=O)COP(=O)(O)O [DSP, dexamethasone sodium phosphate]
2 | – | – | dissolve completely | C[C@@H]1C[C@H]2[C@@H]3CCC4=CC(=O)C=C[C@]4(C)[C@@]3(F)[C@@H](O)C[C@]2(C)[C@@]1(O)C(=O)CO [dexamethasone]
